Reference: PubChem BioAssay (NCI)
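Test compounds were applied to cells in 96-well plates for 48 hours at 5 doses. Abbreviation: GI50, concentration required for 50% inhibition of growth. TGI denotes the concentration required for complete inhibition of growth.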

Key:
Assay in all cases: NCI anticancer screen, dose series, 48 h
[1] = system: 786-0 renal
[2] = system: A498 renal
[3] = system: A549 NSCLC
[4] = system: ACHN renal
[5] = system: BT-549 breast
[6] = system: CAKI-1 renal
[7] = system: CCRF-CEM leukemia
[8] = system: COLO 205 colon
[9] = system: DU-145 prostate
[10] = system: EKVX NSCLC
[11] = system: HCC-2998 colon
[12] = system: HL-60(TB) leukemia
[13] = system: HOP-62 NSCLC
[14] = system: HOP-92 NSCLC
[15] = system: HS 578T breast
[16] = system: HT29 colon
[17] = system: IGROV1 ovarian
[18] = system: K-562 leukemia
[19] = system: KM12 colon
[20] = system: LOX IMVI melanoma
[21] = system: M14 melanoma
[22] = system: MALME-3M melanoma
[23] = system: MDA-MB-231 breast
[24] = system: MDA-MB-435
[25] = system: MOLT-4 leukemia
[26] = system: NCI-H226 lung
[27] = system: NCI-H23 lung
[28] = system: NCI-H460 lung
[29] = system: NCI-H522 lung
[30] = system: NCI/ADR-RES ovarian
[31] = system: OVCAR-4 ovarian
[32] = system: OVCAR-5 ovarian
[33] = system: OVCAR-8 ovarian
[34] = system: PC-3 prostate
[35] = system: RPMI-8226 leukemia
[36] = system: RXF 393 renal
[37] = system: SF-268 CNS
[38] = system: SF-295 CNS
[39] = system: SF-539 CNS
[40] = system: SK-MEL-2 melanoma
[41] = system: SK-MEL-28 melanoma
[42] = system: SK-MEL-5 melanoma
[43] = system: SK-OV-3 ovarian
[44] = system: SN12C renal
[45] = system: SNB-19 CNS
[46] = system: SNB-75 CNS
[47] = system: SR leukemia
[48] = system: SW-620 colon
[49] = system: TK-10 renal
[50] = system: U251 CNS
[51] = system: UACC-257 melanoma
[52] = system: UACC-62 melanoma
[53] = system: UO-31 renal

## CCN(CC)c1ccc2c(c1)Oc1nc(N)c(C#N)c(N)c1C2Sc1ccc(C)cc1 (stereo unspecified)
[1]
  GI50: 1880 nM
  TGI: 3.45 µM
[2]
  GI50: 1890 nM
  TGI: 3.3 µM
[3]
  GI50: 1930 nM
  TGI: 3.84 µM
[4]
  GI50: 1580 nM
  TGI: 2930 nM
[5]
  GI50: 1160 nM
  TGI: 2500 nM
[6]
  GI50: 1460 nM
  TGI: 2780 nM
[7]
  GI50: 366 nM
  TGI: 2110 nM
[8]
  GI50: 1810 nM
  TGI: 3.49 µM
[9]
  GI50: 1800 nM
  TGI: 3.21 µM
[10]
  GI50: 605 nM
  TGI: 2050 nM
[11]
  GI50: 1780 nM
  TGI: 3.32 µM
[12]
  GI50: 564 nM
  TGI: 3.14 µM
[13]
  GI50: 1760 nM
  TGI: 3.29 µM
[14]
  GI50: 1310 nM
  TGI: 2600 nM
[15]
  GI50: 1590 nM
  TGI: 4.57 µM
[16]
  GI50: 1840 nM
  TGI: 3.41 µM
[17]
  GI50: 1090 nM
  TGI: 2360 nM
[18]
  GI50: 2300 nM
  TGI: > 100 µM
[19]
  GI50: 1050 nM
  TGI: 2280 nM
[20]
  GI50: 320 nM
  TGI: 1060 nM
[21]
  GI50: 1570 nM
  TGI: 3.22 µM
[22]
  GI50: 1680 nM
  TGI: 3.06 µM
[23]
  GI50: 1450 nM
  TGI: 2810 nM
[24]
  GI50: 1250 nM
  TGI: 2540 nM
[25]
  GI50: 824 nM
  TGI: 4.3 µM
[26]
  GI50: 2010 nM
  TGI: 4.62 µM
[27]
  GI50: 1260 nM
  TGI: 2640 nM
[28]
  GI50: 1390 nM
  TGI: 3.02 µM
[29]
  GI50: 1750 nM
  TGI: 3.17 µM
[30]
  GI50: 2190 nM
  TGI: 5.04 µM
[31]
  GI50: 1750 nM
  TGI: 3.18 µM
[32]
  GI50: 1710 nM
  TGI: 3.12 µM
[33]
  GI50: 1510 nM
  TGI: 3.08 µM
[34]
  GI50: 1260 nM
  TGI: 2600 nM
[35]
  GI50: 1900 nM
  TGI: 5.61 µM
[36]
  GI50: 1770 nM
  TGI: 3.22 µM
[37]
  GI50: 1670 nM
  TGI: 3.25 µM
[38]
  GI50: 1750 nM
  TGI: 3.19 µM
[39]
  GI50: 1600 nM
  TGI: 2960 nM
[40]
  GI50: 1720 nM
  TGI: 3.12 µM
[41]
  GI50: 1700 nM
  TGI: 3.09 µM
[42]
  GI50: 1760 nM
  TGI: 3.15 µM
[43]
  GI50: 1940 nM
  TGI: 3.47 µM
[44]
  GI50: 1680 nM
  TGI: 3.15 µM
[45]
  GI50: 1360 nM
  TGI: 2670 nM
[46]
  GI50: 1340 nM
  TGI: 2630 nM
[47]
  GI50: 261 nM
  TGI: 834 nM
[48]
  GI50: 1500 nM
  TGI: 3.21 µM
[49]
  GI50: 2960 nM
  TGI: 4.48 µM
[50]
  GI50: 1200 nM
  TGI: 2740 nM
[51]
  GI50: 1850 nM
  TGI: 3.39 µM
[52]
  GI50: 1670 nM
  TGI: 3.07 µM
[53]
  GI50: 1350 nM
  TGI: 2630 nM
